Assay results taken from patent publication US9259002B2, “Herbicidal composition and method of use thereof” (Syngenta Crop Protection LLC, priority 2006, dated 2016).

Key:
Assay type in all cases: in vivo
[1] = tested on: white clover (Trifolium repens); experiment: Glasshouse trial, post-emergence control of white clover
Method: A glasshouse trial was carried out. White clover seeds were sown into standard glasshouse potting mix (1:1 v/v Promix:Vero sand soil) contained in 10 cm square plastic pots. Treatments were replicated three times. […] When used, dithiopyr was applied at a rate of 70 g ai/ha or 140 g ai/ha. The adjuvant system was X-77 at 0.1% v/v in deionised water. 200 liters of herbicide/adjuvant system was used per hectare. General weed control was evaluated at 10 and 16 days after treatment (DAT). It is noted that all herbicides were applied at reduced field rates because herbicide effects are magnified in a glasshouse environment. Rates were chosen to give a 50 to 70% level of control with herbicides applied alone as this allows for detection of any synergistic effect when tank mixtures are used. […] The results were evaluated using the Colby formula. The expected result for (A+B) is (A+B)−(A×B/100) where A and B are the ‘observed’ results for A and B on their own. […] A glasshouse trial was carried out as described in Example 1, but using triclopyr (in the form of Turflon®) instead of dithiopyr. A glasshouse trial was carried out as described in Example 2, but using fluoroxypyr (in the form of Spotlight®) instead of triclopyr.

[2] = tested on: Eleusine indica (goosegrass); experiment: Glasshouse trial, post-emergence control of goosegrass; settings: for Expected control (Colby), Plus Mesotrione at 200 g ai/ha: Colby formula; for Actual control, Plus Mesotrione at 200 g ai/ha: post-emergence
[3] = tested on: Medicago lupulina (black medic); experiment: Glasshouse trial, post-emergence control of black medic; settings: for Expected control (Colby), Plus Mesotrione at 100 g ai/ha: Colby formula; for Actual control, Plus Mesotrione at 100 g ai/ha: post-emergence
Method: A glasshouse trial was carried out. White clover seeds were sown into standard glasshouse potting mix (1:1 v/v Promix:Vero sand soil) contained in 10 cm square plastic pots. Treatments were replicated three times. Mesotrione (in the form Callisto® 480SE) was applied post-emergence to white clover (Trifolium repens) at either 50 g ai/ha or 100 g ai/ha with or without dithiopyr (in the form Dimension®). When used, dithiopyr was applied at a rate of 70 g ai/ha or 140 g ai/ha. The adjuvant system was X-77 at 0.1% v/v in deionised water. 200 liters of herbicide/adjuvant system was used per hectare. General weed control was evaluated at 10 and 16 days after treatment (DAT). It is noted that all herbicides were applied at reduced field rates because herbicide effects are magnified in a glasshouse environment. Rates were chosen to give a 50 to 70% level of control with herbicides applied alone as this allows for detection of any synergistic effect when tank mixtures are used. […] The results were evaluated using the Colby formula. The expected result for (A+B) is (A+B)−(A×B/100) where A and B are the ‘observed’ results for A and B on their own. […] A glasshouse trial was carried out as described in Example 1, but using triclopyr (in the form of Turflon®) instead of dithiopyr. A glasshouse trial was carried out as described in Example 2, but using Medicago lupulina (black medic) of white clover. A glasshouse trial was carried out as described in Example 4, but using fluoroxypyr instead of triclopyr.

[4] = triclopyr 140 g ai/ha + mesotrione 200 g ai/ha
[5] = triclopyr 280 g ai/ha + mesotrione 200 g ai/ha
[6] = triclopyr 140 g ai/ha + mesotrione 100 g ai/ha
[7] = fluroxypyr 50 g ai/ha + mesotrione 100 g ai/ha

In the case of CS(=O)(=O)c1ccc(C(=O)C2C(=O)CCCC2=O)c([N+](=O)[O-])c1 [mesotrione, 2-(2′-nitro-4′-methylsulphonylbenzoyl)-1,3-cyclohexanedione], the “control of white clover on its own” value ([1]; mesotrione alone, higher rate (100 g ai/ha), post-emergence) is reported as 48% and the “control of white clover on its own” value ([1]; mesotrione alone, lower rate (50 g ai/ha), post-emergence) is reported as 32%.
With O=C(O)COc1nc(Cl)c(Cl)cc1Cl [Triclopyr, [(3,5,6-trichloro-2-pyridyl)oxy]acetic acid] the “Expected control (Colby), Plus Mesotrione at 100 g ai/ha” value (“Expected control … at 100 g ai/ha” for short) ([1]; triclopyr 140 g ai/ha + mesotrione 100 g ai/ha, Colby formula) was 84, the “Actual control, Plus Mesotrione at 100 g ai/ha” value (“Actual control … at 100 g ai/ha” below) ([1]; triclopyr 140 g ai/ha + mesotrione 100 g ai/ha, post-emergence) was 99 and the “Expected control (Colby), Plus Mesotrione at 200 g ai/ha” value (“Expected control … at 200 g ai/ha” for short) ([1]; triclopyr 140 g ai/ha + mesotrione 200 g ai/ha, Colby formula) was 90. For the same compound, the “Actual control, Plus Mesotrione at 200 g ai/ha” value (“Actual control … at 200 g ai/ha” below) ([1]; triclopyr 140 g ai/ha + mesotrione 200 g ai/ha, post-emergence) was 98, the “Expected control … at 200 g ai/ha” value [2, 4] was 32 and the “Actual control … at 200 g ai/ha” value [2, 4] was 42. The “Expected control … at 200 g ai/ha” value [2, 5] was 35, the “Actual control … at 200 g ai/ha” value [2, 5] was 50 and the “Expected control … at 100 g ai/ha” value [3, 6] was 91. For the same compound, the “Actual control … at 100 g ai/ha” value [3, 6] was 97.
CSC(=O)c1c(C(F)F)nc(C(F)(F)F)c(C(=O)SC)c1CC(C)C [Dithiopyr, S,S′-dimethyl 2-difluoromethyl-4-isobutyl-6-trifluoromethylpyridine-=3,5-dicarbothioate] was tested, and the “Actual control, Plus Mesotrione at 50 g ai/ha” value ([1]; dithiopyr 70 g ai/ha + mesotrione 50 g ai/ha tank mix, post-emergence, 10 DAT) was 46.7, the “Expected control (Colby), Plus Mesotrione at 50 g ai/ha” value ([1]; dithiopyr 70 g ai/ha + mesotrione 50 g ai/ha, 10 DAT, Colby formula) was 37.4 and the “Actual control … at 100 g ai/ha” value ([1]; dithiopyr 70 g ai/ha + mesotrione 100 g ai/ha tank mix, post-emergence, 10 DAT) was 55.0. The “Expected control … at 100 g ai/ha” value ([1]; dithiopyr 70 g ai/ha + mesotrione 100 g ai/ha, 10 DAT, Colby formula) was 52.6, the “Actual control, Plus Mesotrione at 50 g ai/ha” value ([1]; dithiopyr 140 g ai/ha + mesotrione 50 g ai/ha tank mix, post-emergence, 10 DAT) was 43.3 and the “Expected control (Colby), Plus Mesotrione at 50 g ai/ha” value ([1]; dithiopyr 140 g ai/ha + mesotrione 50 g ai/ha, 10 DAT, Colby formula) was 44.2. For the same compound, the “Actual control … at 100 g ai/ha” value ([1]; dithiopyr 140 g ai/ha + mesotrione 100 g ai/ha tank mix, post-emergence, 10 DAT) was 46.7, the “Expected control … at 100 g ai/ha” value ([1]; dithiopyr 140 g ai/ha + mesotrione 100 g ai/ha, 10 DAT, Colby formula) was 57.8 and the “control of white clover on its own” value ([1]; dithiopyr alone, higher rate (140 g ai/ha), post-emergence) was 18%. The “control of white clover on its own” value ([1]; dithiopyr alone, lower rate (70 g ai/ha), post-emergence) was 8%.
For Nc1c(Cl)c(F)nc(OCC(=O)O)c1Cl [Fluroxypyr, [(4-amino-3,5-dichloro-6-fluoro-2-pyridinyl)oxy]acetic acid], the “Expected control … at 100 g ai/ha” value ([1]; fluroxypyr 50 g ai/ha + mesotrione 100 g ai/ha, Colby formula) was 84, the “Actual control … at 100 g ai/ha” value ([1]; fluroxypyr 50 g ai/ha + mesotrione 100 g ai/ha, post-emergence) was 91 and the “Expected control … at 100 g ai/ha” value [3, 7] was 85. The “Actual control … at 100 g ai/ha” value [3, 7] was 90.
